Active and inactive are the calls of the source. No cut-off for these calls is given here.
Columns and labels:
[1] = target: T1, Focal adhesion kinase 1 (Homo sapiens, UniProt Q05397); test: Inhibition of recombinant FAK (unknown origin) by radiometric kinase assay
[2] = system: MDA-MB-231; test: Antiproliferative activity against human MDA-MB-231 cells assessed as growth inhibition measured after 72 hrs by CellTiter-Glo assay; type: functional; conditions: Homo sapiens, MDA-MB-231
[3] = Oral bioavailability in rat at 5 mg/kg; type: ADME, organism-based; conditions: in vivo
[4] = target: T2, Non-receptor tyrosine-protein kinase TYK2 (Homo sapiens, UniProt P29597); test: Inhibition of TYK2 (unknown origin)
[5] = target: Proto-oncogene tyrosine-protein kinase Src (Homo sapiens, UniProt P12931); test: Inhibition of Src (unknown origin)
[6] = target: Cyclin-dependent kinase 4 (Homo sapiens, UniProt P11802); test: Inhibition of CDK4 (unknown origin)
[7] = target: T3, Tyrosine-protein kinase Fyn (Homo sapiens, UniProt P06241); test: Inhibition of Fyn (unknown origin)
Target sequence in this assay (P06241 whole entry): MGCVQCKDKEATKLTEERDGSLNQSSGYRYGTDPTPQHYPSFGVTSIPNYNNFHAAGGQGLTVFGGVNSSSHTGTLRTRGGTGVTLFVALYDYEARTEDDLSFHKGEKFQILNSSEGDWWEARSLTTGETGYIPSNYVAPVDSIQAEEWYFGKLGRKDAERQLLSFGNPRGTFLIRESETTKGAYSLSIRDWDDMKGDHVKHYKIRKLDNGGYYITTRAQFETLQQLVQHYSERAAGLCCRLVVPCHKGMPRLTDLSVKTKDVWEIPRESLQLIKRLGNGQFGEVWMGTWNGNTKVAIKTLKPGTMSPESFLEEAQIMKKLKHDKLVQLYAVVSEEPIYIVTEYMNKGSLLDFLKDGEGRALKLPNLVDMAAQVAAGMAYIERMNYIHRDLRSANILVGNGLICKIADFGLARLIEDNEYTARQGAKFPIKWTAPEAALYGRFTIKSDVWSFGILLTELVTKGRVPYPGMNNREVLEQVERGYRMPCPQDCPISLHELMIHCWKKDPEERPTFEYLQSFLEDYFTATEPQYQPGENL

[8] = target: T2, Non-receptor tyrosine-protein kinase TYK2; test: Inhibition of TYK2 (unknown origin) at 0.1 uM
[9] = target: Proto-oncogene tyrosine-protein kinase receptor Ret (Homo sapiens, UniProt P07949); test: Inhibition of RET (unknown origin) at 0.1 uM
[10] = target: Tyrosine-protein kinase Fes/Fps (Homo sapiens, UniProt P07332); test: Inhibition of Fes (unknown origin) at 0.1 uM
[11] = target: T3, Tyrosine-protein kinase Fyn; test: Inhibition of Fyn (unknown origin) at 0.1 uM
[12] = system: Melanoma cell line; test: Antiproliferative activity against human skin cancer cells assessed as growth inhibition measured after 72 hrs by MTT assay; type: functional, cell-based
[13] = system: NCI-H23; test: Antiproliferative activity against human NCI-H23 cells assessed as growth inhibition measured after 72 hrs by MTT assay; type: functional, cell-based
[14] = system: BaF3; test: Antiproliferative activity against mouse Ba/F3 cells harbouring FLT3 ITD mutant assessed as growth inhibition measured after 72 hrs by CellTiter-Glo assay; type: functional; conditions: Mus musculus, BaF3
[15] = system: BaF3; test: Antiproliferative activity against mouse Ba/F3 cells harbouring FLT3 ITD F691L mutant assessed as growth inhibition measured after 72 hrs by CellTiter-Glo assay; type: functional; conditions: Mus musculus, BaF3
[16] = target: T1, Focal adhesion kinase 1; test: Inhibition of FAK autophosphorylation at Y576 in human MDA-MB-231 cells at 5 uM incubated for 24 hrs by Western blot analysis; type: cell-based
Target sequence in this assay (Q05397 2-1052 limits assumed): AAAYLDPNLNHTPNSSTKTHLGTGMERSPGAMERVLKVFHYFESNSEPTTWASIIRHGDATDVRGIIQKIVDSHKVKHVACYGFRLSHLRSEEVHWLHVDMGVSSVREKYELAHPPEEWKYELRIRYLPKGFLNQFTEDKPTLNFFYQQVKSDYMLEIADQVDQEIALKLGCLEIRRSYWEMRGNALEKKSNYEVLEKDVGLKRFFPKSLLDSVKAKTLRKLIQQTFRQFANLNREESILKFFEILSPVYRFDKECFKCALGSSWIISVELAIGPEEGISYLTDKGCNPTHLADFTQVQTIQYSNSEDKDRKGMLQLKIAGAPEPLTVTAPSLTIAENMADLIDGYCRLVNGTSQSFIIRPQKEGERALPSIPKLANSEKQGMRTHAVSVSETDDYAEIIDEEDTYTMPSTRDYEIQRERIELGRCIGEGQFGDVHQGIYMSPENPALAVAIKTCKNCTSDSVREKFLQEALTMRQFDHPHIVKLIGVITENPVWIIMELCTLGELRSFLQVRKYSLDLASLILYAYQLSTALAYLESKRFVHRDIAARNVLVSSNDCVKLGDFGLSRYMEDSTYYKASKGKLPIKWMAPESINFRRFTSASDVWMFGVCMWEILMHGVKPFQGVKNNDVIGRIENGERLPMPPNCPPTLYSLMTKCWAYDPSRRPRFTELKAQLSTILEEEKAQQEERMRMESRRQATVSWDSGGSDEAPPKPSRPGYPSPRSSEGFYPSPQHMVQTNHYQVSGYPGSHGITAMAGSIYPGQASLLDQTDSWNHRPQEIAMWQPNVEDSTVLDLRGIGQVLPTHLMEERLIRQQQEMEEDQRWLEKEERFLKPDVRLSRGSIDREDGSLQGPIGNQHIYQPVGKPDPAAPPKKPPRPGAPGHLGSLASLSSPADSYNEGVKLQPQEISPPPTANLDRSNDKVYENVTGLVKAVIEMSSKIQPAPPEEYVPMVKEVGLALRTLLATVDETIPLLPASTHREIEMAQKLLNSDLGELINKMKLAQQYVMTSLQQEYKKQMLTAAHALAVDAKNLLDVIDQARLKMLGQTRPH

[17] = target: T1, Focal adhesion kinase 1; test: Inhibition of FAK in human HCT-116 cells assessed as inhibition of paxillin phosphorylation at 0.5 to 5 uM incubated for 24 hrs by Western blot analysis; type: cell-based; conditions: dose 0.5-5 µM
Target sequence in this assay (Q05397 2-1052 limits assumed): as above

[18] = target: T1, Focal adhesion kinase 1; test: Inhibition of FAK in human MDA-MB-231 cells assessed as inhibition of Pyk2 phosphorylation at 0.5 to 5 uM incubated for 24 hrs by Western blot analysis; type: cell-based; conditions: dose 0.5-5 µM
Target sequence in this assay (Q05397 2-1052 limits assumed): as above

[19] = system: MDA-MB-231; test: In vivo antitumor activity against human MDA-MB-231 cells xenografted in Balb/c mouse assessed as tumor volume at 70 mg/kg, po once daily measured for 16 days (reference value: 600 mm^3); type: functional; conditions: time 16 day
[20] = system: MDA-MB-231; test: In vivo antitumor activity against human MDA-MB-231 cells xenografted in Balb/c mouse assessed as reduction in tumor mass at 40 to 70 mg/kg, po once daily measured for 16 days; type: functional, organism-based; conditions: dose 40-70 mg/kg, time 16.0 day
[21] = Toxicity in Balb/c mouse xenografted with human MDA-MB-231 cells assessed as change in body weight at 40 to 70 mg/kg, po once daily measured for 16 days; type: organism-based; conditions: in vivo, 384 h, dose 40-70 mg/kg, time 16 day
[22] = system: MDA-MB-231; test: Disruption of focal adhesion of human MDA-MB-231 cells assessed as decrease in vinculin measured after 3 hrs by Alexa Fluor 488-conjugated Ab based fluorescence analysis; type: functional, cell-based; conditions: dose 1-10 µM
[23] = system: MDA-MB-231; test: Induction of morphological changes in human MDA-MB-231 cells at 10 uM measured within 2 hrs by fluorescence analysis; type: functional, cell-based; conditions: time hrs <=2
[24] = system: MDA-MB-231; test: Antimetastatic activity against human MDA-MB-231 cells expressing firefly luciferase xenografted NSG orthotopic mouse model assessed as reduction in luminescence intensity at chest region at 70 mg/kg, po once daily measured for 2 weeks; type: functional, organism-based
[25] = system: MDA-MB-231; test: Antimetastatic activity against human MDA-MB-231 cells expressing firefly luciferase xenografted NSG orthotopic mouse model assessed as reduction in luminescence intensity at axillary lymph node at 70 mg/kg, po once daily measured for 2 weeks; type: functional, organism-based
[26] = system: MDA-MB-231; test: Antimetastatic activity against human MDA-MB-231 cells expressing firefly luciferase xenografted NSG orthotopic mouse model assessed as reduction in luminescence intensity at lung at 70 mg/kg, po once daily measured for 2 weeks; type: functional, organism-based
[27] = system: T4, Receptor-type tyrosine-protein kinase FLT3 (Homo sapiens), P36888 [D835Y]; test: Inhibition of FLT3-D835Y mutant (unknown origin) expressed in mouse Ba/F3 cells assessed as decrease in ERK phosphorylation at 10 nM by Western blot analysis; type: cell-based; conditions: BaF3
T4 sequence (whole entry): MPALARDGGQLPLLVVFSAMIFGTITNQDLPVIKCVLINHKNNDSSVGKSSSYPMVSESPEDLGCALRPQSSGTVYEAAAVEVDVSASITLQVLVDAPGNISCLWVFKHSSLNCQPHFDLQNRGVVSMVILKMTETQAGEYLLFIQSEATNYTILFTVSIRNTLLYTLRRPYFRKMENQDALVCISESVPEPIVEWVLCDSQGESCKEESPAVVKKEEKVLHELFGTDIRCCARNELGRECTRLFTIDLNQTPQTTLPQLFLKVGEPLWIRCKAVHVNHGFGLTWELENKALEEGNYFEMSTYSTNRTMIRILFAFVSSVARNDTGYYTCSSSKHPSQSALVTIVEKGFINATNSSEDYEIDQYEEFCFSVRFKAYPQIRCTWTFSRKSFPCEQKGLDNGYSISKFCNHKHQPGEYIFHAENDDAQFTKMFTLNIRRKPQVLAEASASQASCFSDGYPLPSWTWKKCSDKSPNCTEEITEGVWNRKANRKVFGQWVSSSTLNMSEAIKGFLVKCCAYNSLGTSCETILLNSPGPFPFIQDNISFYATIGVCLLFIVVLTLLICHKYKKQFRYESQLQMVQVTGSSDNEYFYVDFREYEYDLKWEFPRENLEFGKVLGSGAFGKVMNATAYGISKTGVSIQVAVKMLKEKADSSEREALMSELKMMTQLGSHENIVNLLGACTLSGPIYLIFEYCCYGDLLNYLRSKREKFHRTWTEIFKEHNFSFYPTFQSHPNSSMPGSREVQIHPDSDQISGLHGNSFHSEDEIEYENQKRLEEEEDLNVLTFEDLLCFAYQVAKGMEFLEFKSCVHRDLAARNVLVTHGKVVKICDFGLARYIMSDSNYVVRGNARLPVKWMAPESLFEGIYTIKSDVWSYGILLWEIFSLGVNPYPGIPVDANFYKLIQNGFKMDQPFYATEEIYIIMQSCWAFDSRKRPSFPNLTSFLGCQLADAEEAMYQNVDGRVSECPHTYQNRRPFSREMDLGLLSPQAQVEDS

[28] = Toxicity in mouse xenografted with human MV4-11 cells assessed as change in body weight at 20 to 50 mg/kg, po; type: organism-based; conditions: in vivo, dose 20-50 mg/kg

T2 sequence (P29597 whole entry): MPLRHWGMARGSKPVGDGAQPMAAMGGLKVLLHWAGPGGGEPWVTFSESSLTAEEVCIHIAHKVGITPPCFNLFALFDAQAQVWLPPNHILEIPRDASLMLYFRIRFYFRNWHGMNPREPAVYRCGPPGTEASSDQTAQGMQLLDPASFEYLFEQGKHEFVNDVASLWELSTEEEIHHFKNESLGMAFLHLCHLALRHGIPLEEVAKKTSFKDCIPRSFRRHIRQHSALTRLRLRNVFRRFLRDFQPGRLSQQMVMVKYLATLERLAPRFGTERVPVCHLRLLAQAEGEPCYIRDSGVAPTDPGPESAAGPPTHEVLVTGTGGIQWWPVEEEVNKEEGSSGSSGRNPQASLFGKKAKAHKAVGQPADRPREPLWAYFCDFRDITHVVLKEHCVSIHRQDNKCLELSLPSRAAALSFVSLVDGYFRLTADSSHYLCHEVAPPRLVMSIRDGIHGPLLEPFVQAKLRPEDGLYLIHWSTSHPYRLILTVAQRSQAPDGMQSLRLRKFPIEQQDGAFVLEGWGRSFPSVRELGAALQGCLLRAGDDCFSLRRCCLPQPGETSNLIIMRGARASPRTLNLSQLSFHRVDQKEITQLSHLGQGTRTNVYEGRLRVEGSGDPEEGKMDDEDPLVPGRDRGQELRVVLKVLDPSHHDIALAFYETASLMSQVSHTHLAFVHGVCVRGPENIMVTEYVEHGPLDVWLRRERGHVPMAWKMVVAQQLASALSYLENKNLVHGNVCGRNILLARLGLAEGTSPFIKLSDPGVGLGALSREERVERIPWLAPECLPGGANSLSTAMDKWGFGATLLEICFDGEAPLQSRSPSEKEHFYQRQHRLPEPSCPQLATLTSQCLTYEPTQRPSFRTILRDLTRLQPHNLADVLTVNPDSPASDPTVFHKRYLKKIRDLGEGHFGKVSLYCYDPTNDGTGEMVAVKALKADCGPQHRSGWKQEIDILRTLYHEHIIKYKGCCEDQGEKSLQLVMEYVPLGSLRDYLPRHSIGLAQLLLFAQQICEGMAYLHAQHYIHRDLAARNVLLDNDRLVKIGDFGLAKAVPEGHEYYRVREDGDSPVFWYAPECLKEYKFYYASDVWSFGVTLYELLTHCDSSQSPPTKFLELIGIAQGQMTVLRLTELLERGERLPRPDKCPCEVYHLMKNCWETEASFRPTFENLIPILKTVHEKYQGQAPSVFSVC
Cyclin-dependent kinase 4, sequence (P11802 whole entry): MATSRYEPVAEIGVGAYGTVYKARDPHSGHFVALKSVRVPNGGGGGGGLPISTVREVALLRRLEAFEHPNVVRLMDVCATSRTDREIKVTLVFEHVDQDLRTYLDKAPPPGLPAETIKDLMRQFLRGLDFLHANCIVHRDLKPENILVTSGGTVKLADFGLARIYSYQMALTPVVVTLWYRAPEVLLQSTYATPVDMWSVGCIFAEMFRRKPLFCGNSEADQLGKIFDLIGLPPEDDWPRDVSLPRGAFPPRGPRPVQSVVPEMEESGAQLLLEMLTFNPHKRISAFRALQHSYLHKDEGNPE
Proto-oncogene tyrosine-protein kinase receptor Ret, sequence (P07949 whole entry): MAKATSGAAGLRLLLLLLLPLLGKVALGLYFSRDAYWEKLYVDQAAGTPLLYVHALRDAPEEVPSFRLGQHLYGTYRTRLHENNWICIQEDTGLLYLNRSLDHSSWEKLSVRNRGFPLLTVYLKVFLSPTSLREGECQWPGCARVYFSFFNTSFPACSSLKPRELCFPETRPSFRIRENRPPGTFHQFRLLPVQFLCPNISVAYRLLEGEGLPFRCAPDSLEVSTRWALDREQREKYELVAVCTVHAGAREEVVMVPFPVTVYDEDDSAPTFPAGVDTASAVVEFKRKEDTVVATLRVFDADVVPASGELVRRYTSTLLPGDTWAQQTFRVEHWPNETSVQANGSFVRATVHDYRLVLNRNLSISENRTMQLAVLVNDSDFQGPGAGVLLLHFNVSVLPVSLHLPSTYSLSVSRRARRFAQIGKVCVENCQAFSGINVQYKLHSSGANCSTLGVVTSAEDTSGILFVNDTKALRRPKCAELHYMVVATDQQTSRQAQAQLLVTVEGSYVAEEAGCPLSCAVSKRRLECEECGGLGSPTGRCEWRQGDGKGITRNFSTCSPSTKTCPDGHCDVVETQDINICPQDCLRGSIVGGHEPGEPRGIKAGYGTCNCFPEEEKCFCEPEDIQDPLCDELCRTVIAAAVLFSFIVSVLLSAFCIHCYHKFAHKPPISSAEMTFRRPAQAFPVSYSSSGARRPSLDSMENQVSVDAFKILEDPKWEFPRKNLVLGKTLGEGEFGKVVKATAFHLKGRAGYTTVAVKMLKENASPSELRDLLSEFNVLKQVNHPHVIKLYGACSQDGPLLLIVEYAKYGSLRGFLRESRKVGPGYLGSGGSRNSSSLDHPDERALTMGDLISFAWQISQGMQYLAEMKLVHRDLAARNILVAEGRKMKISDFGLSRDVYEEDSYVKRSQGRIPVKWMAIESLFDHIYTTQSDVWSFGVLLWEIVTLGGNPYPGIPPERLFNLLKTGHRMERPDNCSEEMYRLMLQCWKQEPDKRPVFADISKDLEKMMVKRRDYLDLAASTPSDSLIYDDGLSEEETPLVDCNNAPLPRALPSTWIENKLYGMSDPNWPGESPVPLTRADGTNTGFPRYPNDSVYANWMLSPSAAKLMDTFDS
Tyrosine-protein kinase Fes/Fps, sequence (P07332 whole entry): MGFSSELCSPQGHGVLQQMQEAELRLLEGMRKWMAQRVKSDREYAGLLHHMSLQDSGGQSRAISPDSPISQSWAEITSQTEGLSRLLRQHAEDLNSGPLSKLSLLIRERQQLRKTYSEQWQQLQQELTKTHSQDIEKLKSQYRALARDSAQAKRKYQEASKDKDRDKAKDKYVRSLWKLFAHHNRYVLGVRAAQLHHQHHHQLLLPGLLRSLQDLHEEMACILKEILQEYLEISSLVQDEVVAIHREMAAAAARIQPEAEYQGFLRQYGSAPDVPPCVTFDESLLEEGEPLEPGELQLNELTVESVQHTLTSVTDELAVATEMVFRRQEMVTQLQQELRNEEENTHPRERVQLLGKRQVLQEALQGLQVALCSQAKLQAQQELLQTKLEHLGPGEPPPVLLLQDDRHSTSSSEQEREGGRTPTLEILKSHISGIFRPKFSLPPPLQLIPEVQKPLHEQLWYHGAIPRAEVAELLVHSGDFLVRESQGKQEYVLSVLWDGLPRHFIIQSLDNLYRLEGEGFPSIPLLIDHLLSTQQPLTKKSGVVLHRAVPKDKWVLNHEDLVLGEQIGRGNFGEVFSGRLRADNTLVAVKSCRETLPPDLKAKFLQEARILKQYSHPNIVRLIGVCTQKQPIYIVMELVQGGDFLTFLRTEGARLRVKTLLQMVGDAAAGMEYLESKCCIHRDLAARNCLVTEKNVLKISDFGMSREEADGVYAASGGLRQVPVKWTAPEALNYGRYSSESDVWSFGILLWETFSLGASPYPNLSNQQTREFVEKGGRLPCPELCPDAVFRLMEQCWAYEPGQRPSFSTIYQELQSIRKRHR

## CCN1CCN(c2ccc(Nc3ncc4scc(-c5cccc(NS(C)(=O)=O)c5)c4n3)cc2)CC1
[1]
  IC50: 7 nM
[2]
  GI50: 470 nM
[3]
  bioavailability: 37.1%
[4]
  IC50: 4.3 nM
[5]
  IC50: 3.4 nM
[6]
  IC50: 8.5 nM
[7]
  IC50: 7.7 nM
[8]
  inhibition: 95.9%
[9]
  inhibition: 95.3%
[10]
  inhibition: 95%
[11]
  inhibition: 92%
[12]
  Activity: Active
[13]
  Activity: Active
[14]
  GI50: 4 nM
[15]
  GI50: 60.5 nM
[16]
  inhibition: Active
[17]
  inhibition: Active
[18]
  inhibition: Active
[19]
  Activity: 300 mm3
[20]
  Activity: Active
[21]
  Activity: Non-Toxic
[22]
  Activity: Active
[23]
  Activity: Active
[24]
  Activity: Active
[25]
  Activity: Active
[26]
  Activity: Active
[27]
  inhibition: 100%
[28]
  Activity: Non-Toxic

Reference: ChEMBL document CHEMBL4837239, “Identification of Thieno[3,2-d]pyrimidine Derivatives as Dual Inhibitors of Focal Adhesion Kinase and FMS-like Tyrosine Kinase 3” (J Med Chem, 2021)
